US4303640A, “Oil-in-water organophosphorus insecticidal emulsion” (priority 1979, dated 1981)
Values after ≈ are worked out from the molar mass of the structure shown.

Experiments:
[1] = size of emulsified particles of the active ingredient (microscope); format: physicochemical; details: oil-in-water emulsion, as prepared
Method: A brief description of the method of producing the oil-in-water insecticidal emulsion of this invention will be given below. First, an insecticidally active liquid ingredient of the organophosphorus compound is added to a 2 to 20 wt% aqueous solution of polyvinyl alcohol or gum arabic, and a conventonal stirrer such as a T.K. Homomixer (a homogenizer manufactured by Tokushu Kika Kogyo Co., Ltd.) or a Shinagawa All-Purpose Mixer (a mixer manufactured by San-Ei-Seisakusho, Ltd.) is used to disperse the particles of the active ingredient (A.I.), generally at ambient temperature or, if necessary, at an elevated temperature (about 40° to 80° C.). The size of the emulsified particles of the active ingredient can be varied wihtin the range of from about 1 to 200μ depending upon the stirring force or the content of polyvinyl alcohol or gum arabic. A microscope is used to check the size of the emulsified particles of the active ingredient. Finally, for the purpose of preventing settling of the emulsified particles and improving the dispersion stability, an aqueous solution of a thickener is added to the emulsion in a suitable amount. The resulting oil-in-water insecticidal emulsion remains stable for an extended period. […]

[2] = physchem; details: water

Structure (SMILES)	Particle Size of emulsified active ingredient [1] [μ]	solubility [2] [mg/mL]	water-solubility at 10° C.
COP(=S)(OC)Oc1ccc([N+](=O)[O-])c(C)c1 [Compound (1), O,O-dimethyl O-(3-methyl-4-nitrophenyl)phosphorothioate]	1 to 30	0.005 (≈ 18 µM)	
COP(=O)(Cc1cccc(C#N)c1)OC		~6 (≈ 26600 µM)	ca. 6,000 ppm
CCOC(=O)CC(SP(=S)(OC)OC)C(=O)OCC (stereo not drawn) [Compound (2), O,O-dimethyl S-[1,2-di-(ethoxycarbonyl)ethyl]-phosphorodithioate]		0.145 (≈ 439 µM)	
CCOC(=O)C(SP(=S)(OC)OC)c1ccccc1 (stereo not drawn) [Compound (4), O,O-dimethyl S-[α-(ethoxycarbonyl)benzyl]-phosphorodithioate]		0.004 (≈ 12.5 µM)	
COP(=S)(OC)Oc1ccc(C#N)cc1 [Compound (3), O,O-dimethyl O-(4-cyanophenyl)phosphorothioate]	1 to 50	0.028 (≈ 115 µM)	
